From ChEMBL document CHEMBL1201862, “PubChem BioAssay data set” (2004)
Counter-ions that a name gives are not always drawn.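 Five compound concentrations were applied to cells in 96-well plates for 48 hours; endpoints were derived by simple linear interpolation of the resulting dose-response curve. Abbreviation: GI50, concentration required for 50% inhibition of growth.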 The source made the active and inactive calls. Rule as the data show it: active = GI50 up to about 1.1 µM and inactive = higher.

Experiments:
Test in all cases: NCI tumour cell line growth inhibition, 48 h
DU-145 = test system: DU-145
HCT-15 = test system: HCT-15
HL-60 = test system: HL-60
Hs-578T = test system: Hs-578T
MDA-MB-231 = test system: MDA-MB-231
MOLT-4 = test system: MOLT-4
Malme-3M = test system: Malme-3M
NCI-H226 = test system: NCI-H226
NCI-H522 = test system: NCI-H522
NCI/ADR-RES = test system: NCI/ADR-RES
PC-3 = test system: PC-3
SF-268 = test system: SF-268
SK-MEL-28 = test system: SK-MEL-28
SK-MEL-2 = test system: SK-MEL-2
SNB-75 = test system: SNB-75
SR = test system: SR
TK-10 = test system: TK-10
UACC-62 = test system: UACC-62
MDA-N = test system: MDA-N
BT-549 = test system: BT-549

SMILES	GI50 (DU-145)	GI50 (HCT-15)	GI50 (HL-60)	GI50 (Hs-578T)	GI50 (MDA-MB-231)	GI50 (MOLT-4)	GI50 (Malme-3M)	GI50 (NCI-H226)	GI50 (NCI-H522)	GI50 (NCI/ADR-RES)	GI50 (PC-3)	GI50 (SF-268)	GI50 (SK-MEL-28)	GI50 (SK-MEL-2)	GI50 (SNB-75)	GI50 (SR)	GI50 (TK-10)	GI50 (UACC-62)	GI50 (MDA-N)	GI50 (BT-549)
FC(F)(F)c1ccc(/N=C/C=C(/Nc2ccc(C(F)(F)F)cc2)c2ccc(Cl)cc2)cc1	13.5 µM (inactive)	4.73 µM	12.9 µM (inactive)	13 µM (inactive)	14.5 µM (inactive)	4.06 µM (inactive)	19.4 µM (inactive)	4.53 µM (inactive)	11.1 µM (inactive)	13.7 µM (inactive)	18 µM (inactive)	12.1 µM (inactive)	15.1 µM (inactive)	8.34 µM (inactive)	17.6 µM (inactive)	3.47 µM (inactive)	15.8 µM (inactive)	1.82 µM (inactive)	–	–
O=C(O)c1ccc(Nc2cnc3cc(C(F)(F)F)ccc3n2)cc1	58.5 µM (inactive)	25.6 µM	22.8 µM (inactive)	40 µM (inactive)	36.7 µM (inactive)	47.5 µM (inactive)	29.5 µM (inactive)	71.3 µM (inactive)	25.8 µM (inactive)	40.9 µM (inactive)	80.7 µM (inactive)	> 100 µM (inactive)	42.4 µM (inactive)	–	35.6 µM (inactive)	56.1 µM (inactive)	31.5 µM (inactive)	25.3 µM (inactive)	53.8 µM (inactive)	–
CC1(C)OC([C@H](O)CO)C([C@H]2NCCS2)O1 (some centres undefined)	> 100 µM (inactive)	> 100 µM	> 100 µM (inactive)	> 100 µM (inactive)	> 100 µM (inactive)	> 100 µM (inactive)	> 100 µM (inactive)	> 100 µM (inactive)	> 100 µM (inactive)	> 100 µM (inactive)	> 100 µM (inactive)	> 100 µM (inactive)	> 100 µM (inactive)	> 100 µM (inactive)	> 100 µM (inactive)	> 100 µM (inactive)	> 100 µM (inactive)	> 100 µM (inactive)	–	> 100 µM (inactive)
C#Cc1cccc(Nc2ncnc3cc(OCCOC)c(OCCOC)cc23)c1 [ERLOTINIB HYDROCHLORIDE]	–	4.76 µM	–	5.01 µM (inactive)	0.0139 µM (active)	–	–	–	–	7.67 µM (inactive)	34.5 µM (inactive)	–	> 100 µM (inactive)	4.11 µM (inactive)	14.8 µM (inactive)	–	–	< 0.01 µM (active)	41 µM (inactive)	–
Clc1cccc(C2ON=C(c3ccccc3)N2C23CC4CC(CC(C4)C2)C3)c1Cl (centres undefined)	> 10 µM (inactive)	> 10 µM	–	> 10 µM (inactive)	> 10 µM (inactive)	> 10 µM (inactive)	> 10 µM (inactive)	> 10 µM (inactive)	> 10 µM (inactive)	> 10 µM (inactive)	6.41 µM (inactive)	> 10 µM (inactive)	> 10 µM (inactive)	> 10 µM (inactive)	> 10 µM (inactive)	–	> 10 µM (inactive)	> 10 µM (inactive)	> 10 µM (inactive)	–
CCOC(=O)/C=C/CCC(C)(C)COC(C)=O	> 10 µM (inactive)	> 10 µM	> 10 µM (inactive)	> 10 µM (inactive)	> 10 µM (inactive)	> 10 µM (inactive)	–	> 10 µM (inactive)	> 10 µM (inactive)	> 10 µM (inactive)	> 10 µM (inactive)	> 10 µM (inactive)	> 10 µM (inactive)	> 10 µM (inactive)	> 10 µM (inactive)	> 10 µM (inactive)	> 10 µM (inactive)	> 10 µM (inactive)	> 10 µM (inactive)	–
Cc1c2ccccc2c(/C=N/NC(=O)CSCC(=O)N/N=C/c2c3ccccc3c(C)c3ccccc23)c2ccccc12	> 55.8 µM (inactive)	> 100 µM	> 68.7 µM (inactive)	46 µM (inactive)	31.2 µM (inactive)	27.8 µM (inactive)	37 µM (inactive)	> 44.7 µM (inactive)	–	> 63.5 µM (inactive)	> 31.4 µM (inactive)	23.8 µM (inactive)	> 60.7 µM (inactive)	> 78.3 µM (inactive)	> 27.4 µM (inactive)	–	29 µM (inactive)	> 64.7 µM (inactive)	–	40.7 µM (inactive)
CN(C)c1ccc(/C=C(\NC(=O)c2ccccc2)C(=O)NC(CC(=O)O)C(=O)O)cc1 (centres undefined)	> 100 µM (inactive)	> 100 µM	> 100 µM (inactive)	49.7 µM (inactive)	> 100 µM (inactive)	> 100 µM (inactive)	–	> 100 µM (inactive)	17.7 µM (inactive)	43.7 µM (inactive)	> 100 µM (inactive)	61.4 µM (inactive)	> 100 µM (inactive)	> 100 µM (inactive)	1.99 µM (inactive)	75 µM (inactive)	> 100 µM (inactive)	82 µM (inactive)	–	> 100 µM (inactive)
Cc1ccccc1C(C#N)/C(=N/NC(=O)C(=O)NN)C(=O)Nc1cccc(C(F)(F)F)c1 (centres undefined)	–	> 100 µM	> 100 µM (inactive)	–	–	> 100 µM (inactive)	> 100 µM (inactive)	> 100 µM (inactive)	> 100 µM (inactive)	–	–	> 100 µM (inactive)	> 100 µM (inactive)	> 100 µM (inactive)	49.8 µM (inactive)	> 100 µM (inactive)	> 100 µM (inactive)	> 100 µM (inactive)	–	–
COc1ccc(/C=C2/NC(=S)N=C2Cl)cc1	> 100 µM (inactive)	> 100 µM	> 100 µM (inactive)	> 100 µM (inactive)	> 100 µM (inactive)	> 100 µM (inactive)	> 100 µM (inactive)	> 100 µM (inactive)	> 100 µM (inactive)	> 100 µM (inactive)	> 100 µM (inactive)	> 100 µM (inactive)	> 100 µM (inactive)	> 100 µM (inactive)	> 100 µM (inactive)	> 100 µM (inactive)	> 100 µM (inactive)	–	> 100 µM (inactive)	–
COc1ccc(OC)c(CCc2ccccc2CC(=O)O)c1	–	> 100 µM	> 100 µM (inactive)	–	–	> 100 µM (inactive)	> 100 µM (inactive)	> 100 µM (inactive)	> 100 µM (inactive)	–	–	> 100 µM (inactive)	> 100 µM (inactive)	> 100 µM (inactive)	35.5 µM (inactive)	> 100 µM (inactive)	> 100 µM (inactive)	> 100 µM (inactive)	–	–
O=C1Cc2c([nH]c3ccc(Br)cc23)-c2ccccc2N1 [KENPAULLONE]	> 100 µM (inactive)	4.46 µM	5.21 µM (inactive)	> 100 µM (inactive)	> 100 µM (inactive)	13.5 µM (inactive)	> 100 µM (inactive)	> 100 µM (inactive)	> 100 µM (inactive)	> 100 µM (inactive)	> 100 µM (inactive)	> 75.5 µM (inactive)	> 62.4 µM (inactive)	> 100 µM (inactive)	> 50.8 µM (inactive)	4.21 µM (inactive)	> 100 µM (inactive)	> 100 µM (inactive)	> 100 µM (inactive)	–
CC(C)C(Nc1c2ccccc2nc2ccccc12)C(=O)O (centres undefined)	–	> 100 µM	52.6 µM (inactive)	–	–	38.7 µM (inactive)	> 100 µM (inactive)	> 100 µM (inactive)	> 100 µM (inactive)	–	–	> 100 µM (inactive)	> 100 µM (inactive)	> 100 µM (inactive)	> 100 µM (inactive)	46.5 µM (inactive)	> 100 µM (inactive)	> 100 µM (inactive)	–	–
COc1cc(-c2nnc3n2NC=C(C(=O)O)S3)cc(OC)c1OC	–	> 54.5 µM	> 61.4 µM (inactive)	–	–	> 100 µM (inactive)	> 100 µM (inactive)	> 100 µM (inactive)	> 100 µM (inactive)	–	–	> 76.9 µM (inactive)	> 100 µM (inactive)	> 100 µM (inactive)	> 100 µM (inactive)	41.6 µM (inactive)	> 100 µM (inactive)	> 93.5 µM (inactive)	–	–
Cn1c(=O)c2nc(/N=N/Nc3nncs3)[nH]c2n(C)c1=O	> 100 µM (inactive)	> 100 µM	–	> 100 µM (inactive)	> 100 µM (inactive)	> 100 µM (inactive)	–	–	–	> 100 µM (inactive)	> 100 µM (inactive)	> 100 µM (inactive)	> 100 µM (inactive)	> 100 µM (inactive)	–	–	> 100 µM (inactive)	> 100 µM (inactive)	–	> 100 µM (inactive)
CN(C)c1cccc2c(S(=O)(=O)NCCCNCCN)cccc12	> 100 µM (inactive)	> 100 µM	26.1 µM (inactive)	22.3 µM (inactive)	41.5 µM (inactive)	18.6 µM (inactive)	61.5 µM (inactive)	64.6 µM (inactive)	48.1 µM (inactive)	> 100 µM (inactive)	44.2 µM (inactive)	65.6 µM (inactive)	46.1 µM (inactive)	25.9 µM (inactive)	13.6 µM (inactive)	19.1 µM (inactive)	–	51.2 µM (inactive)	26.2 µM (inactive)	–
CC(C)CCC[C@@H](C)[C@H]1CC[C@H]2[C@@H]3CC[C@H]4C[C@@H](CCC=C(c5cc(Cl)c(O)c(C(=O)O)c5)c5cc(Cl)c(O)c(C(=O)O)c5)CC[C@]4(C)[C@H]3CC[C@]12C	> 100 µM (inactive)	> 100 µM	> 100 µM (inactive)	> 100 µM (inactive)	> 100 µM (inactive)	> 100 µM (inactive)	> 100 µM (inactive)	> 100 µM (inactive)	> 100 µM (inactive)	> 100 µM (inactive)	> 100 µM (inactive)	> 100 µM (inactive)	> 100 µM (inactive)	> 100 µM (inactive)	> 100 µM (inactive)	> 100 µM (inactive)	> 100 µM (inactive)	> 100 µM (inactive)	–	> 100 µM (inactive)
